Results published in ChEMBL document CHEMBL5465560, “Selectivity Literature for EUbOPEN Chemogenomic Library” (2024).

Key:
[1] = target: Eukaryotic translation initiation factor 2-alpha kinase 1 (Homo sapiens) (UniProt Q9BQI3); assay: Selectivity interaction (KinomeScan (DiscoverX)) EUB0001049a EIF2AK1; settings: at 1 µM
[2] = target: T1, MAP kinase-activated protein kinase 5 (Homo sapiens) (UniProt Q8IW41); assay: Selectivity interaction (Kinase panel (literature)) EUB0001199aCl MAPKAPK5; settings: at 1 µM
T1 sequence (whole entry): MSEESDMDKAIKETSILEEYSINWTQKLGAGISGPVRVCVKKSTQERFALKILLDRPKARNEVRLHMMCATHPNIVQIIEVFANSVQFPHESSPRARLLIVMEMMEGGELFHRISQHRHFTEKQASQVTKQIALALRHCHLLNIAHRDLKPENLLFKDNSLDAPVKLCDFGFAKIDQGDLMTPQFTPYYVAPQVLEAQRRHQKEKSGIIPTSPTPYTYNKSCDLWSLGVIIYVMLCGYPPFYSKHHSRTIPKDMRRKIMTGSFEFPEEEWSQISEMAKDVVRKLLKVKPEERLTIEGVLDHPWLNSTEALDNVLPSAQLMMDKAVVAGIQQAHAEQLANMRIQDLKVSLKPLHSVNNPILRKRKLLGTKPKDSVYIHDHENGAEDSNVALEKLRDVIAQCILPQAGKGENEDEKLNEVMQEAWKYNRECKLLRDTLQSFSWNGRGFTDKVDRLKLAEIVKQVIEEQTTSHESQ

[3] = target: Dual specificity protein kinase CLK3 (Homo sapiens, UniProt P49761); assay: Selectivity interaction (KinomeScan (DiscoverX)) EUB0000229b CLK3; settings: at 10 µM
[4] = target: Serine/threonine-protein kinase MARK2 (Homo sapiens) (UniProt Q7KZI7); settings: at 10 µM
[5] = target: BMP-2-inducible protein kinase (Homo sapiens) (UniProt Q9NSY1); assay: Selectivity interaction (Kinase panel (DSF assay)) EUB0001559a BMP2K
[6] = target: Serine/threonine-protein kinase Chk2 (Homo sapiens) (UniProt O96017); assay: Selectivity interaction (ActivX KiNativ screen (kinase selectivity in THP-1 cell lysates)) EUB0000639a CHEK2; format: subcellular; settings: lysate, at 0.04 µM
[7] = target: Cyclin-dependent kinase 7 (Homo sapiens, UniProt P50613); assay: Selectivity interaction (ActivX KiNativ screen (kinase selectivity in THP-1 cell lysates)) EUB0000639a CDK7; format: subcellular; settings: lysate, at 1 µM
[8] = target: Ribosomal protein S6 kinase alpha-6 (Homo sapiens, UniProt Q9UK32); assay: Selectivity interaction (KinomeScan (DiscoverX)) EUB0000045b RPS6KA6
[9] = target: T2, Phosphorylase b kinase gamma catalytic chain, liver/testis isoform (Homo sapiens) (UniProt P15735); assay: Selectivity interaction (KinomeScan (DiscoverX)) EUB0000045b PHKG2
T2 sequence (whole entry): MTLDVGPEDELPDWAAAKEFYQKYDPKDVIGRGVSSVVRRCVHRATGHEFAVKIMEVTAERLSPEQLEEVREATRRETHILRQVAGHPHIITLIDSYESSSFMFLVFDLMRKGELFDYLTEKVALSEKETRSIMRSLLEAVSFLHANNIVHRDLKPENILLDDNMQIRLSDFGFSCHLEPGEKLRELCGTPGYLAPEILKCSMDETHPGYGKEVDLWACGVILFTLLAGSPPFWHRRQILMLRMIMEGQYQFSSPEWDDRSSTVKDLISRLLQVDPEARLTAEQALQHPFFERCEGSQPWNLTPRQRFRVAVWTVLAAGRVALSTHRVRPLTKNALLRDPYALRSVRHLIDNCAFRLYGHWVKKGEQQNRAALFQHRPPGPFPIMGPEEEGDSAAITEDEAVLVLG

[10] = target: Wee1-like protein kinase 2 (Homo sapiens) (UniProt P0C1S8); assay: Selectivity interaction (KinomeScan (DiscoverX)) EUB0000695a WEE2; settings: at 100 nM
[11] = target: T3, Tyrosine-protein kinase ZAP-70 (Homo sapiens) (UniProt P43403); assay: Selectivity interaction (SelectScreen profiling (Invitrogen)) EUB0000607a ZAP70; settings: at 2 µM
T3 sequence (whole entry): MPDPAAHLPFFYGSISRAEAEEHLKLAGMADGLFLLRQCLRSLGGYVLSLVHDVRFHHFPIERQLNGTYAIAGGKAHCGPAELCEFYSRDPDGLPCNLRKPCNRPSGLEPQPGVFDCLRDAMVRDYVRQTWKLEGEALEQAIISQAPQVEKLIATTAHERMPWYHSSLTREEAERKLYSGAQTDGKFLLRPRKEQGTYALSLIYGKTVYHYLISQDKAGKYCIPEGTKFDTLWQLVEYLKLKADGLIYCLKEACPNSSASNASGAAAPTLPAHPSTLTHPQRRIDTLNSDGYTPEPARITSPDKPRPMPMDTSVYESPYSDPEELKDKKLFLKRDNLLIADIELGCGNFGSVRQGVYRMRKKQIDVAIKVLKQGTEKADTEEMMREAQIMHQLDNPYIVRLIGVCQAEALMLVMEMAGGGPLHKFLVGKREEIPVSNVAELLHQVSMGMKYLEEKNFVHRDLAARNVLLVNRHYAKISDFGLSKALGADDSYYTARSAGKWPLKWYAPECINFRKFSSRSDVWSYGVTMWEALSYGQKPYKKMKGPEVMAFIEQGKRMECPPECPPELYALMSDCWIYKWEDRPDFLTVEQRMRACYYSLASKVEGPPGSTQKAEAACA

[12] = target: T4, Tyrosine-protein kinase Tec (Homo sapiens) (UniProt P42680); assay: Selectivity interaction (KinomeScan (DiscoverX)) EUB0000607a TEC; settings: at 10 µM
T4 sequence (whole entry): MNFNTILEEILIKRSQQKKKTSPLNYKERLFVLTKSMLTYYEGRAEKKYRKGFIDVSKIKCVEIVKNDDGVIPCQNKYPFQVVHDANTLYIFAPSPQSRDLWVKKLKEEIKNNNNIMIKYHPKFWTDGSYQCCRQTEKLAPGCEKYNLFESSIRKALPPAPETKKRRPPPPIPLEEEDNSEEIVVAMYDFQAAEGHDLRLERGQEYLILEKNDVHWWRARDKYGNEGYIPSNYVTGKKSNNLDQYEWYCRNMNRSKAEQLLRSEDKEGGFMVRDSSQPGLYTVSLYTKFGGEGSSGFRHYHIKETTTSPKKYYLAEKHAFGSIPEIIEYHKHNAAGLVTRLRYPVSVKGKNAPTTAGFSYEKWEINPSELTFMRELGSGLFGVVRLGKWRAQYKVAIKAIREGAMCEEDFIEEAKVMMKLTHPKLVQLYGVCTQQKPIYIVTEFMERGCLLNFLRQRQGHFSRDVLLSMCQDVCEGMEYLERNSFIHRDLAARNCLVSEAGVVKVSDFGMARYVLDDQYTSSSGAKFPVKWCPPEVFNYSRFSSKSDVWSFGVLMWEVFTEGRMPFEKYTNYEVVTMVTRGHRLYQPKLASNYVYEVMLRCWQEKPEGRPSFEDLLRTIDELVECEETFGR

[13] = system: Leucine-rich repeat serine/threonine-protein kinase 2 (Homo sapiens), Q5S007 [G2019S]; assay: Selectivity interaction (Adapta Assay) EUB0001632a LRRK2; settings: at 10 µM
Chain of Leucine-rich repeat serine/threonine-protein kinase 2 (Homo sapiens), Q5S007 [G2019S] (Q5S007 whole entry G2019S): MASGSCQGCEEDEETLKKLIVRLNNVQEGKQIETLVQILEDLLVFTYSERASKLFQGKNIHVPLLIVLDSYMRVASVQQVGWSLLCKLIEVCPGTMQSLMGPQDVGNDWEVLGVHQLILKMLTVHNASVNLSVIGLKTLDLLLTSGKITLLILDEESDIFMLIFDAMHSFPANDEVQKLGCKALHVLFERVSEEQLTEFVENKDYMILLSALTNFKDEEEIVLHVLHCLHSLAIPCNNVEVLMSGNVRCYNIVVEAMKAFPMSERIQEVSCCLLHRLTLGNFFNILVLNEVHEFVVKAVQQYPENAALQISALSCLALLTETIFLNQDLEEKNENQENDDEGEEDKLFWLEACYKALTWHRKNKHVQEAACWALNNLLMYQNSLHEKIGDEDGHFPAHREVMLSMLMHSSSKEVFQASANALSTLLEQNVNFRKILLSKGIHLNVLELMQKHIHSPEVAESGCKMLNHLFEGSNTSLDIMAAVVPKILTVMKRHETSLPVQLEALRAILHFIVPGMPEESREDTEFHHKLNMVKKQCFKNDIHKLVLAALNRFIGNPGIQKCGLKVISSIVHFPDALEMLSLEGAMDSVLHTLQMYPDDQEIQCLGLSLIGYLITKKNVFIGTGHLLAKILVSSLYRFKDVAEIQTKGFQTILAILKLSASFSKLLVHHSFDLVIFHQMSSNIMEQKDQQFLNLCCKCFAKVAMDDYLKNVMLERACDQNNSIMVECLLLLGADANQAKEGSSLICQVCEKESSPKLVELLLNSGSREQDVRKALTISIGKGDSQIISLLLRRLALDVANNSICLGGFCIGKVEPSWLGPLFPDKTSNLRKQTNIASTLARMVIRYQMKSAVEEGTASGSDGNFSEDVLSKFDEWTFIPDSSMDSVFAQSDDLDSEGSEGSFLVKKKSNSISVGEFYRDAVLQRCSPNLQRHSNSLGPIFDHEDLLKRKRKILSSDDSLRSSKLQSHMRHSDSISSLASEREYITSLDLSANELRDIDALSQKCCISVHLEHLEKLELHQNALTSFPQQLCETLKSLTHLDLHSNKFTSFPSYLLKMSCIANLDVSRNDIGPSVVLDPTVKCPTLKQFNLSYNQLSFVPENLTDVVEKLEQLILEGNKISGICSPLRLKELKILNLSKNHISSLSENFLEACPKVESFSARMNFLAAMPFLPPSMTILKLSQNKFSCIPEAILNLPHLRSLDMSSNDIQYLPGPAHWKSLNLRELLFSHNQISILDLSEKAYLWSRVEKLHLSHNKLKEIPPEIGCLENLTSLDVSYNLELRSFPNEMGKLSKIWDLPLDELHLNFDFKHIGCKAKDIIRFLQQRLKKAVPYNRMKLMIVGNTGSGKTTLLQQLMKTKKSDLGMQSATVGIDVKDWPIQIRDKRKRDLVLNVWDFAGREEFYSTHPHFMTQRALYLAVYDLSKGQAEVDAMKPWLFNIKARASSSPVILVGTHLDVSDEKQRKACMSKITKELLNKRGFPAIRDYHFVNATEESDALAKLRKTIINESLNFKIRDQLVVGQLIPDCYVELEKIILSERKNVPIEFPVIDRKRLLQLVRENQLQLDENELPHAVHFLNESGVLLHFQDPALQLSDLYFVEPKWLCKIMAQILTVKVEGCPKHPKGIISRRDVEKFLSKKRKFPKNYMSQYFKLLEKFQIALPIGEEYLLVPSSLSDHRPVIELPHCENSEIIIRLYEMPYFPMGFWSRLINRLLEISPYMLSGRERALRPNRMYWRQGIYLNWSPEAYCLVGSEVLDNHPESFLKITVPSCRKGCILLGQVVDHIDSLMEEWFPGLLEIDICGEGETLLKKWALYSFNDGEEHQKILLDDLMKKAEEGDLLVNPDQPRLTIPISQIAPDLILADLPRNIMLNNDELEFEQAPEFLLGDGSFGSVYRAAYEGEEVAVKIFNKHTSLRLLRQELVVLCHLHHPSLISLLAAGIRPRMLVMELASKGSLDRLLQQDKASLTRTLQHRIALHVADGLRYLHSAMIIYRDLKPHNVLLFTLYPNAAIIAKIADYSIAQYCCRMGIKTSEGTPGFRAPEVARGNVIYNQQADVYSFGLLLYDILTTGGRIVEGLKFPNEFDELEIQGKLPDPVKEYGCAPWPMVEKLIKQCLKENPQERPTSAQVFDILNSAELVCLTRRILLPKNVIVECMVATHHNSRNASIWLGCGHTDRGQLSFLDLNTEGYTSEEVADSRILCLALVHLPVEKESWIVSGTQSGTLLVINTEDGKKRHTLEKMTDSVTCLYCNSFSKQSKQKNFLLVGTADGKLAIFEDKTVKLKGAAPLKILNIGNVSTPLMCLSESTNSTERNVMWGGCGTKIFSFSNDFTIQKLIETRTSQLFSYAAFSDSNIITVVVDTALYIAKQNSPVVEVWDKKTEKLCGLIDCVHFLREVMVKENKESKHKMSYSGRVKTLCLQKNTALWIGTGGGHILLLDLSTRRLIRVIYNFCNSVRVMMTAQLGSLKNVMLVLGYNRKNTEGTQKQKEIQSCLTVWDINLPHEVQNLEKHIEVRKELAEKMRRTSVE

Chain of Ribosomal protein S6 kinase alpha-6 (Q9UK32 whole entry, canonical isoform): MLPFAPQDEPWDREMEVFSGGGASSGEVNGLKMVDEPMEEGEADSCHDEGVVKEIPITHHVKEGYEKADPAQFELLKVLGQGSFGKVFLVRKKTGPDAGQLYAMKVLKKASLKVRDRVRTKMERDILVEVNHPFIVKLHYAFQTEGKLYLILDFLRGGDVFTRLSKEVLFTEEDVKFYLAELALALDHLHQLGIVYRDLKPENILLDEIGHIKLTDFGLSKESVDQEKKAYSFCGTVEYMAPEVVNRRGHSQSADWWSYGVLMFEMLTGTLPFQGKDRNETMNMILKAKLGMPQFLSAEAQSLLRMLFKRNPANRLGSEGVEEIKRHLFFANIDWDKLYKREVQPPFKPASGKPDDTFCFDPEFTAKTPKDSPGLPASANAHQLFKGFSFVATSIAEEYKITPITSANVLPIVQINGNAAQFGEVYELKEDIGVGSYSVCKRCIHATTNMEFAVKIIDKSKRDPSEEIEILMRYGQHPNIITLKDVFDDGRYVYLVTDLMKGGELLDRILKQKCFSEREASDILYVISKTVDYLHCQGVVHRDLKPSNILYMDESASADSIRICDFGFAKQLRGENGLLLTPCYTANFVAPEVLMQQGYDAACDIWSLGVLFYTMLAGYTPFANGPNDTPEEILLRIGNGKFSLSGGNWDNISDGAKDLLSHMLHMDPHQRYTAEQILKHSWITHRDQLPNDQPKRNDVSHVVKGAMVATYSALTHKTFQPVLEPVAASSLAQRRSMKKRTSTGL
Chain of Eukaryotic translation initiation factor 2-alpha kinase 1 (Homo sapiens) (Q9BQI3 whole entry): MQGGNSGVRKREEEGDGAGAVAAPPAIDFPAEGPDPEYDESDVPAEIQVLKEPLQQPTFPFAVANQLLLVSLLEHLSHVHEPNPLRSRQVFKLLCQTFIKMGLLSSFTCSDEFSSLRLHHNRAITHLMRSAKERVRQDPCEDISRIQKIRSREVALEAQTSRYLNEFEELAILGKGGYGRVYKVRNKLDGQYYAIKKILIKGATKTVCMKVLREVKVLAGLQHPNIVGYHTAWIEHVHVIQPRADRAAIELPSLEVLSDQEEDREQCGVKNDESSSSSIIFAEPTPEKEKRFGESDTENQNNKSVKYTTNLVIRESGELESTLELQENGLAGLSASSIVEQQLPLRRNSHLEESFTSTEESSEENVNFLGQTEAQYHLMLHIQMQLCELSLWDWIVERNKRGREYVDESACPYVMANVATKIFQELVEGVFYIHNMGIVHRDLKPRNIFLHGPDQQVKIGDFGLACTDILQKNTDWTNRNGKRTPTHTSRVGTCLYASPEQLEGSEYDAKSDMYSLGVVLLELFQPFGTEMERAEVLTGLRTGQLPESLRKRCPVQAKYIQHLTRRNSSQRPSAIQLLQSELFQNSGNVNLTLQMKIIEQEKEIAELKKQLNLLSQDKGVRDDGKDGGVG
Chain of Serine/threonine-protein kinase Chk2 (Homo sapiens) (O96017 whole entry): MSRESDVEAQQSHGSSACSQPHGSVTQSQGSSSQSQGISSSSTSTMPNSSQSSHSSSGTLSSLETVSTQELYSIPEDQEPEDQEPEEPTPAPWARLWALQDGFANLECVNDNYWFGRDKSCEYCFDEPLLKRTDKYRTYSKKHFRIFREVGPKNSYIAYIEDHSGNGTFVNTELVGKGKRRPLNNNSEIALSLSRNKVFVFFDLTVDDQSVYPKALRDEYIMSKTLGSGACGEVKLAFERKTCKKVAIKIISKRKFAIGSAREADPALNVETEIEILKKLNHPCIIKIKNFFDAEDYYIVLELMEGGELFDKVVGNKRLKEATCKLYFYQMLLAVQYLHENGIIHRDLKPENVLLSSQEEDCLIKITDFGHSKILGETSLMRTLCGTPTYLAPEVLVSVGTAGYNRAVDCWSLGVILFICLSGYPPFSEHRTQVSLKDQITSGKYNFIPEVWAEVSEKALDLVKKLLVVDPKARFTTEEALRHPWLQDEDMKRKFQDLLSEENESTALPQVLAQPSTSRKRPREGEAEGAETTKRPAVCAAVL
Chain of Wee1-like protein kinase 2 (Homo sapiens) (P0C1S8 whole entry, looked up): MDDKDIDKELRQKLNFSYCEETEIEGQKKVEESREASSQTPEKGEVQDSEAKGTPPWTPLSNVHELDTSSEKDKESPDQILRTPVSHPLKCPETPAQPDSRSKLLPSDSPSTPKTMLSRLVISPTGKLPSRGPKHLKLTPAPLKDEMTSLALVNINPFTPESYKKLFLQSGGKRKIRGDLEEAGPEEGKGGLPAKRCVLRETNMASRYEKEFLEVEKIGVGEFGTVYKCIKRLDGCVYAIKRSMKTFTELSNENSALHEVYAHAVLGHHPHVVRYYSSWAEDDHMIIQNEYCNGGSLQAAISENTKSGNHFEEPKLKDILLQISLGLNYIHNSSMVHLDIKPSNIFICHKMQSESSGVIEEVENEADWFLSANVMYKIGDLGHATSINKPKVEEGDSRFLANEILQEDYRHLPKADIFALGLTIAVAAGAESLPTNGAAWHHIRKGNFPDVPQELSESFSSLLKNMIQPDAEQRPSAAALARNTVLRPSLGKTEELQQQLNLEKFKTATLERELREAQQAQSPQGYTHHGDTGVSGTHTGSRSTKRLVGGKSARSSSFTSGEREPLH

SMILES: COc1cc(Nc2nc(C)cc(-c3cnn4nc(OC)ccc34)n2)cc(C(F)(F)F)c1
- % of control [1]: 89%

SMILES: CN1Cc2nccc(-c3cn(C)nc3-c3ccc(F)cc3)c2C1=O
- % of inhibition [2]: -1%

SMILES: COc1cc(N(C)c2ccnc3ccc(C(F)(F)F)cc23)cc(OC)c1OC
- % binding [3]: 59%

SMILES: CCN(CC)CCCCNc1ncc2cc(-c3cc(OC)cc(OC)c3)c(NC(=O)NC(C)(C)C)nc2n1
- % of control [4]: 100%

SMILES: CN(C(=O)c1cnn2cccnc12)c1cc2c(cc1N1CCOCC1)C(=O)N(C[C@@H](F)C(C)(C)O)C2
- dTM [5]: -0.2 K

SMILES: CC[C@@H]1[C@H](F)C(=O)N[C@@H]1COc1nccc2cc(C(N)=O)c(OC)cc12 [ZIMLOVISERTIB]
- % of inhibition [6]: -4.5%
- % of inhibition [7]: 10.8%

SMILES: C=CC(=O)Nc1cc(-n2c(=O)ccc3cnc4ccc(-c5ccc(NS(C)(=O)=O)cc5)cc4c32)ccc1C
- % of control ([8]; at 1 µM): 100%
- % of control ([8]; at 10 µM): 56%
- % of control ([9]; at 1 µM): 74%
- % of control ([9]; at 10 µM): 88%

SMILES: Cc1cc(F)c(C(=O)Nc2cccc(-c3nncn3C(C)C)n2)cc1-n1cnc(C2CC2)c1
- % of control [10]: 100%

SMILES: CNC(=O)Nc1ccc(-c2nc(N3CC4CCC(C3)O4)c3cnn(C4CCC5(CC4)OCCO5)c3n2)cc1
- % of inhibition [11]: 7%
- % of control [12]: 84%

SMILES: Cn1cc(-n2cnc3c(NCc4nc5cc(Cl)c(Cl)cc5[nH]4)nc(N4CCOCC4)nc32)cn1
- % of inhibition [13]: 95%
